Read-outs that look alike come from different tables or passages of the source.
Assays:
[1] = target: particulate P(40) fraction (Methylosinus trichosporium, UniProt Q50541+Q9KX50+Q9KX51); test: hydroxylation of n-alkanes to secondary alcohols by particulate P(40) fraction (Table XVII); type: biochemical, Methylosinus trichosporium (OB3b, NRRL-B-11,196)
From the text: (§1) Both cell suspensions (particulate fraction) and cell-free particulate fraction of methane-grown methylotroph microorganisms are capable of catalyzing the conversion of C3 -C6 n-alkanes to the corresponding alcohols including secondary alcohols. The conditions for preparing the cell suspensions or the cell-free particulate fractions from methane-grown methylotroph microorganisms is the same as described above. The cell-free particulate fraction requires the presence of oxygen and NADH as an electron donor. […] Tables XVI and XVII show the conversion of C3 -C6 n-alkanes to the corresponding secondary alcohols using cell suspensions and cell-free particulate fractions, respectively, of methane-grown methylotroph microorganisms.
(§2) ^(a) Particulate P(40) fraction was prepared as follows:
(§3) Cellsuspensions at 4° C. were disintegrated through a French
(§4) Pressure cell and centrifuged at 4000 × g. for 15 min. to remove
(§5) unbroken bacteria. The supernatant solution was then centrifuged at 40,00
(§6) × g. for 30 min. at 4° C., yielding the particulate P(40) an
(§7) soluble S(40) fractions. The products were identified by gas
(§8) chromatography and cochromatography with authentic standard.
Target sequence in this assay (Q50541 1-252): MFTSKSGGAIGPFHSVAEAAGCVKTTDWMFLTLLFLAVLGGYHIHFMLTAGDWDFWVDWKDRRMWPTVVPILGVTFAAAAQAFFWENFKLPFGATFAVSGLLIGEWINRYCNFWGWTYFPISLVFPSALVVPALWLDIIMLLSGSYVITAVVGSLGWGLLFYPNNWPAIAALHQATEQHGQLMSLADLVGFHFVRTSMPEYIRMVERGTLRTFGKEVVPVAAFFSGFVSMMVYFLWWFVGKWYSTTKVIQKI
Target sequence in this assay (Q9KX50 40-431): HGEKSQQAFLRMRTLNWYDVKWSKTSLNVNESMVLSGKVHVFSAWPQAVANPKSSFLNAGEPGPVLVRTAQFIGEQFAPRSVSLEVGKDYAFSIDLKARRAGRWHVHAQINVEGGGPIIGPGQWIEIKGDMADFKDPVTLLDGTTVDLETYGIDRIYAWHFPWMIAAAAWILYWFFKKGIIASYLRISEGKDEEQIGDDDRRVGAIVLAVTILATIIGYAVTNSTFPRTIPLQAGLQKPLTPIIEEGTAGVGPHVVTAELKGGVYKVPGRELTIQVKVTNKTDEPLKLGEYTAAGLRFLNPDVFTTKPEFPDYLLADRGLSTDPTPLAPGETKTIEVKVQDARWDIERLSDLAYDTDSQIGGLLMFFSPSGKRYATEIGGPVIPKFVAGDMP
Target sequence in this assay (Q9KX51 1-256): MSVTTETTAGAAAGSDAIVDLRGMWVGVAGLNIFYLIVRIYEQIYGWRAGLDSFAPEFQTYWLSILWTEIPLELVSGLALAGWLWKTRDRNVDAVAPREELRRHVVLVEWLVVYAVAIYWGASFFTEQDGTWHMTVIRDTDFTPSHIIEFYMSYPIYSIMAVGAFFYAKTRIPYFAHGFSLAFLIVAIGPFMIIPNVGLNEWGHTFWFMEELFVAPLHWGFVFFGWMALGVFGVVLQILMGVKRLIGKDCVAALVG

[2] = tested on: Methylobacterium organophilum XX; test: n-alkanes to methyl ketones by resting cell suspensions (Table I); type: cell-based; settings: cells grown on methane; 30° C.
Protocol: (§9) The pH of the nutrient medium was adjusted to 7.0 by the addition of acid or base and 50 ml. samples of the nutrient medium were charged into a plurality of 300 ml. shaker flasks. […] The isolates had been maintained on methanol (0.4% V/V) agar plates or on agar plates under an atmosphere of methane and air having a 1:1 V/V gas ratio which had been transferred every two weeks. For growth on methanol, the medium was supplemented with 0.4% methanol. For growth on methane, the gaseous phase of the inoculated flasks was replaced with a gas mixture comprised of methane and air having a ratio of 1:1 on a V/V basis. The inoculated flasks were sealed air-tight and were incubated on a rotary shaker of orbital radius 2.5 cm. at 250 rpm and at 30° C. for two days until turbidity in the medium had developed. The cells were harvested by centrifugation at 10,000×g. at 4° C. for 30 minutes. The cell pellet was washed twice with a 0.05 M phosphate buffer at a pH of 7.0 (containing 0.02 M MgCl2). The washed cells were then suspended in a 0.05 M phosphate buffer at pH 7.0.
(§10) A 0.5 ml. sample of each washed cell suspension (2 mg. cells) was put into 10 ml. vials at 4° C. which were sealed with a rubber cap. The gaseous phase of the vials was removed with vacuum and then was replaced with a gas mixture of the substrate reactant (i.e., alkane or secondary alcohol) and oxygen at a 1:1 V/V ratio. (In the case of a liquid substrate, i.e., secondary alcohol, 10 μl of the substrate was put in the 10 ml. vials). The vials were then incubated at 30° C. on a rotary shaker at 300 rpm. Samples of product (1-3 μl) were withdrawn periodically with a microsyringe and the products were analyzed by gas chromatography (ionization flame detector column).

[3] = tested on: Methylosinus trichosporium OB3b (NRRL B-11,196); test: as above; type: cell-based; settings: cells grown on methane; 30° C.
Protocol: as §9, §10

[4] = tested on: Methylobacter capsulatus Y (NRRL B-11,201); test: as above; type: cell-based; settings: cells grown on methane; 30° C.
Protocol: as §9, §10

[5] = tested on: Methylococcus capsulatus Texas (ATCC 19069); test: as above; type: cell-based; settings: cells grown on methane; 30° C.
Protocol: as §9, §10

[6] = tested on: Methylosinus sporium 5 (NRRL B-11,197); test: as above; type: cell-based; settings: cells grown on methane; 30° C.
Protocol: as §9, §10

[7] = tested on: Methylomonas methanica SI (NRRL B-11,199); test: as above; type: cell-based; settings: cells grown on methane; 30° C.
Protocol: as §9, §10

[8] = tested on: Methylocystis parvus OBBP (NRRL B-11,198); test: as above; type: cell-based; settings: cells grown on methane; 30° C.
Protocol: as §9, §10

[9] = tested on: Methylomonas albus BG8 (NRRL B-11,200); test: as above; type: cell-based; settings: cells grown on methane; 30° C.
Protocol: as §9, §10

[10] = target: particulate P(40) fraction (Methylococcus capsulatus, UniProt G1UBD1+Q603F1+Q607G3); test: hydroxylation of n-alkanes to secondary alcohols by particulate P(40) fraction (Table XVII); type: biochemical, Methylococcus capsulatus (Texas, ATCC 19,069)
From the text: as §1, §2, §3, §4, §5, §6, §7, §8

[11] = tested on: Methylococcus capsulatus CRL M1 NRRL B-11,219; test: conversion of n-alkanes to oxidation products by cell suspensions (Table XVIII); type: cell-based; settings: methane-grown cell suspension; pH 7.0
Protocol: (§12) ^(a) Cell-suspensions of methanegrown methylotroph microorganisms
(§13) indicated in 0.15 M phosphate buffer, pH 7.0 incubated in the alkanes as
(§14) indicated at 3° C. The oxidation products were determined by g.l.c

[12] = tested on: Methylomonas sp. (CRL-17, NRRL-B-11,209); test: n-alkanes to secondary alcohols by cell suspensions (Table XVI); type: cell-based; settings: Growth Substrate Methane
From the text: as §1
(§11) ^(a) The product secondary alcohols were identified and estimated by […]

[13] = tested on: Methylococcus capsulatus (Texas, ATCC 19,069); test: as above; type: cell-based; settings: Growth Substrate Methane
From the text: as §1, §11

[14] = tested on: Methylobacterium sp. (CRL-26, NRRL-B-11,208); test: as above; type: cell-based; settings: Growth Substrate Methane
From the text: as §1, §11

[15] = tested on: Methylosinus sp. (CRL-15, NRRL-B-11,202); test: as above; type: cell-based; settings: Growth Substrate Methane
From the text: as §1, §11

[16] = tested on: Methylosinus trichosporium (OB3b, NRRL-B-11,196); test: as above; type: cell-based; settings: Growth Substrate Methane
From the text: as §1, §11

[17] = tested on: Methylobacter capsulatus (Y, NRRL-B-11,201); test: as above; type: cell-based; settings: Growth Substrate Methane
From the text: as §1, §11

[18] = tested on: Methylosinus trichosporium OB3b NRRL B-11,196; test: conversion of n-alkanes to oxidation products by cell suspensions (Table XVIII); type: cell-based; settings: methane-grown cell suspension; pH 7.0
Protocol: as §12, §13, §14

[19] = target: particulate P(40) fraction (Methylosinus trichosporium, UniProt Q50541+Q9KX50+Q9KX51); test: hydroxylation of n-alkanes to secondary alcohols by particulate P(40) fraction (Table XVII); type: biochemical, Methylosinus sp. (CRL-15, NRRL-B-11,202)
From the text: as §1, §2, §3, §4, §5, §6, §7, §8
Target sequence in this assay (Q9KX50 40-431): as the sequence (Q9KX50 40-431) above
Target sequence in this assay (Q50541 1-252): as the sequence (Q50541 1-252) above
Target sequence in this assay (Q9KX51 1-256): as the sequence (Q9KX51 1-256) above

[20] = tested on: particulate P(40) fraction; test: as above; type: biochemical, Methylobacterium sp. (CRL-26, NRRL-B-11,222)
From the text: as §1, §2, §3, §4, §5, §6, §7, §8

Chain of particulate P(40) fraction (Methylococcus capsulatus, UniProt G1UBD1+Q603F1+Q607G3) (Q607G3 whole entry): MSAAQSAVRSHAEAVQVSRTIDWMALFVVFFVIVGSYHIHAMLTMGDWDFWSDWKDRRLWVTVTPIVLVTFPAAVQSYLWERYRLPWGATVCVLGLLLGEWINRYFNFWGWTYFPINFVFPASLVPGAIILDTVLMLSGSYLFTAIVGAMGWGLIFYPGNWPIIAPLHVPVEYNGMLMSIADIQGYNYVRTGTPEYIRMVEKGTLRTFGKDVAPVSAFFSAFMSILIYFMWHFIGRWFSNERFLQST
Chain of particulate P(40) fraction (Methylococcus capsulatus, UniProt G1UBD1+Q603F1+Q607G3) (G1UBD1 33-414): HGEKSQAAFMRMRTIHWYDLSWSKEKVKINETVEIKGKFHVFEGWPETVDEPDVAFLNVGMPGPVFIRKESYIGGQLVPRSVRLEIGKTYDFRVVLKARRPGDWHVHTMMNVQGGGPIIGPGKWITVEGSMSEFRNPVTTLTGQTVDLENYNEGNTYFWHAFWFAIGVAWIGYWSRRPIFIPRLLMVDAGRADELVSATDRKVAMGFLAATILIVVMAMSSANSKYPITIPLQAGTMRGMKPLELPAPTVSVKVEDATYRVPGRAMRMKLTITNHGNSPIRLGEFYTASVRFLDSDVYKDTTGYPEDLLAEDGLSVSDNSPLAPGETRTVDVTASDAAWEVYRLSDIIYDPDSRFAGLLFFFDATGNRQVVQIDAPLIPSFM
Chain of particulate P(40) fraction (Methylococcus capsulatus, UniProt G1UBD1+Q603F1+Q607G3) (Q603F1 1-260): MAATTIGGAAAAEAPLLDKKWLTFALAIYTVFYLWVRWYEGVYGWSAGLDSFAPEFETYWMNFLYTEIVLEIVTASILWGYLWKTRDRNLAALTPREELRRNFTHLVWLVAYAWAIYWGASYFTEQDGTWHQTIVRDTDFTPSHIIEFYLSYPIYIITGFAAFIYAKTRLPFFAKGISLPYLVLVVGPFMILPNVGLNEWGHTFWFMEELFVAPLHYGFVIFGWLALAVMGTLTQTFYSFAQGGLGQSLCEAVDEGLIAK

| Structure (SMILES) | Conversion Rate, n-alkane to corresponding secondary alcohol [1] | Conversion Rates, n-alkane to corresponding methyl ketone [2] [μmoles/hr/mg protein] | Conversion Rates, n-alkane to corresponding methyl ketone [3] [μmoles/hr/mg protein] | Conversion Rates, n-alkane to corresponding methyl ketone [4] [μmoles/hr/mg protein] | Conversion Rates, n-alkane to corresponding methyl ketone [5] [μmoles/hr/mg protein] | Conversion Rates, n-alkane to corresponding methyl ketone [6] [μmoles/hr/mg protein] | Conversion Rates, n-alkane to corresponding methyl ketone [7] [μmoles/hr/mg protein] | Conversion Rates, n-alkane to corresponding methyl ketone [8] [μmoles/hr/mg protein] | Conversion Rates, n-alkane to corresponding methyl ketone [9] [μmoles/hr/mg protein] | Conversion Rate, n-alkane to corresponding secondary alcohol [10] | Conversion Rate, n-alkane to corresponding secondary alcohol [12] [μmoles/hr/^5 mg. protein] | Conversion Rate, n-alkane to corresponding secondary alcohol [13] [μmoles/hr/^5 mg. protein] | Conversion Rate, n-alkane to corresponding secondary alcohol [14] [μmoles/hr/^5 mg. protein] | Conversion Rate, n-alkane to corresponding secondary alcohol [15] [μmoles/hr/^5 mg. protein] | Conversion Rate, n-alkane to corresponding secondary alcohol [16] [μmoles/hr/^5 mg. protein] | Conversion Rate, n-alkane to corresponding secondary alcohol [17] [μmoles/hr/^5 mg. protein] | Conversion Rate, n-alkane to corresponding secondary alcohol [19] | Conversion Rate, n-alkane to corresponding secondary alcohol [20] | further results |
| --- | --- | --- | --- | --- | --- | --- | --- | --- | --- | --- | --- | --- | --- | --- | --- | --- | --- | --- | --- |
| CCCC [n-Butane, n-butane] | 0.79 μmoles/hr/2.0mg. of protein | 2.0 | 1.2 | 1.1 | 0.52 | 0.58 | 0.30 | 1.0 | 0.60 | 0.92 μmoles/hr/2.0mg. of protein | 1.2 | 1.0 | 0.80 | 1.2 | 1.5 | 0.09 | 0.89 μmoles/hr/2.0mg. of protein | 0.61 μmoles/hr/2.0mg. of protein | Conversion Rate, product 1-Butanol [11]: 0.4 μmoles/hr./mg./protein; Conversion Rate, product 2-Butanol [11]: 0.5 μmoles/hr./mg./protein; Conversion Rate, product 2-Butanone [11]: 0.2 μmoles/hr./mg./protein; Conversion Rate, product n-butanol [11]: 0.2 μmoles/hr./mg./protein; Conversion Rate, product 1-Butanol [18]: 0.3 μmoles/hr./mg./protein; Conversion Rate, product 2-Butanol [18]: 0.4 μmoles/hr./mg./protein; Conversion Rate, product 2-Butanone [18]: 0.1 μmoles/hr./mg./protein; Conversion Rate, product n-butanol [18]: 0.1 μmoles/hr./mg./protein |
| CCC [n-Propane, n-propane] | 1.32 μmoles/hr/2.0mg. of protein | 2.8 | 1.5 | 1.6 | 1.2 | 2.1 | 2.5 | 1.8 | 2.7 | 1.2 μmoles/hr/2.0mg. of protein | 1.6 | 1.1 | 1.4 | 2.1 | 2.5 | 0.20 | 1.5 μmoles/hr/2.0mg. of protein | 1.0 μmoles/hr/2.0mg. of protein | Conversion Rate, product 1-Propanol [11]: 0.5 μmoles/hr./mg./protein; Conversion Rate, product 2-Propanol [11]: 0.7 μmoles/hr./mg./protein; Conversion Rate, product Acetone [11]: 0.3 μmoles/hr./mg./protein; Conversion Rate, product Propanol [11]: 0.2 μmoles/hr./mg./protein; Conversion Rate, product 1-Propanol [18]: 0.4 μmoles/hr./mg./protein; Conversion Rate, product 2-Propanol [18]: 0.6 μmoles/hr./mg./protein; Conversion Rate, product Acetone [18]: 0.2 μmoles/hr./mg./protein; Conversion Rate, product Propanol [18]: 0.1 μmoles/hr./mg./protein |
